Measurements from ChEMBL document CHEMBL2086231, “Novel pleuromutilin derivatives as antibacterial agents: synthesis, biological evaluation and molecular docking studies” (2012).
In brackets after ≈: the same amount, converted by molar mass.

What was measured:
Type in all cases: functional
[1] = system: Staphylococcus epidermidis; test: Antibacterial activity against methicillin-sensitive Staphylococcus epidermidis isolate cpu0315 after 18 to 20 hrs by agar dilution method
Staphylococcus aureus [2] = test: Antibacterial activity against methicillin-resistant Staphylococcus aureus isolate cpu1098 after 18 to 20 hrs by agar dilution method
Staphylococcus aureus [3] = test: Antibacterial activity against methicillin-sensitive Staphylococcus aureus isolate cpu0587 after 18 to 20 hrs by agar dilution method
Staphylococcus aureus [4] = test: Antibacterial activity against methicillin-sensitive Staphylococcus aureus isolate cpu1344 after 18 to 20 hrs by agar dilution method
[5] = system: Staphylococcus epidermidis; test: Antibacterial activity against methicillin-resistant Staphylococcus epidermidis isolate cpu3569 after 18 to 20 hrs by agar dilution method
Staphylococcus aureus [6] = test: Antibacterial activity against methicillin-resistant Staphylococcus aureus isolate cpu0446 after 18 to 20 hrs by agar dilution method
[7] = system: Staphylococcus epidermidis; test: Antibacterial activity against methicillin-resistant Staphylococcus epidermidis isolate cpu2623 after 18 to 20 hrs by agar dilution method
Staphylococcus aureus [8] = test: Antibacterial activity against methicillin-sensitive Staphylococcus aureus isolate cpu0211 after 18 to 20 hrs by agar dilution method
Staphylococcus aureus [9] = test: Antibacterial activity against methicillin-sensitive Staphylococcus aureus isolate cpu1044 after 18 to 20 hrs by agar dilution method
Staphylococcus aureus [10] = test: Antibacterial activity against methicillin-resistant Staphylococcus aureus isolate cpu3256 after 18 to 20 hrs by agar dilution method
[11] = system: Staphylococcus epidermidis; test: Antibacterial activity against methicillin-resistant Staphylococcus epidermidis isolate cpu3889 after 18 to 20 hrs by agar dilution method
[12] = system: Staphylococcus epidermidis; test: Antibacterial activity against methicillin-sensitive Staphylococcus epidermidis isolate cpu1561 after 18 to 20 hrs by agar dilution method
[13] = system: Staphylococcus epidermidis; test: Antibacterial activity against methicillin-sensitive Staphylococcus epidermidis isolate cpu0347 after 18 to 20 hrs by agar dilution method
[14] = system: Staphylococcus epidermidis; test: Antibacterial activity against methicillin-sensitive Staphylococcus epidermidis isolate cpu2089 after 18 to 20 hrs by agar dilution method
[15] = system: Staphylococcus epidermidis; test: Antibacterial activity against methicillin-resistant Staphylococcus epidermidis isolate cpu2736 after 18 to 20 hrs by agar dilution method
Staphylococcus aureus [16] = test: Antibacterial activity against methicillin-resistant Staphylococcus aureus isolate cpu0887 after 18 to 20 hrs by agar dilution method
Staphylococcus aureus [17] = test: Ratio of tiamulin MIC to compound MIC for methicillin-resistant Staphylococcus aureus isolate cpu0887
Staphylococcus aureus [18] = test: Ratio of amoxicillin MIC to compound MIC for methicillin-resistant Staphylococcus aureus isolate cpu3256
Staphylococcus aureus [19] = test: Ratio of tiamulin MIC to compound MIC for methicillin-resistant Staphylococcus aureus isolate cpu3256
Staphylococcus aureus [20] = test: Ratio of amoxicillin MIC to compound MIC for methicillin-resistant Staphylococcus aureus isolate cpu0446
Staphylococcus aureus [21] = test: Ratio of amoxicillin MIC to compound MIC for methicillin-resistant Staphylococcus aureus isolate cpu1098
Staphylococcus aureus [22] = test: Ratio of amoxicillin MIC to compound MIC for methicillin-resistant Staphylococcus aureus isolate cpu0887
Staphylococcus aureus [23] = test: Ratio of tiamulin MIC to compound MIC for methicillin-resistant Staphylococcus aureus isolate cpu1098
Staphylococcus aureus [24] = test: Ratio of tiamulin MIC to compound MIC for methicillin-resistant Staphylococcus aureus isolate cpu0446
Streptococcus pyogenes = test: Antibacterial activity against Streptococcus pyogenes
Staphylococcus aureus [25] = test: Antibacterial activity against Staphylococcus aureus

`C=C[C@]1(C)C[C@@H](OC(=O)CSCc2csc(NC(=O)CN3CCCC3)n2)[C@]2(C)[C@H](C)CC[C@]3(CCC(=O)[C@H]32)[C@@H](C)[C@@H]1O` gave an MIC [1] of 2 µg/mL (≈ 3.24 µM), an MIC (Staphylococcus aureus [2]) of 0.25 µg/mL (≈ 0.405 µM) and an MIC (Staphylococcus aureus [3]) of 0.125 µg/mL (≈ 0.202 µM). The MIC (Staphylococcus aureus [4]) was 0.25 µg/mL (≈ 0.405 µM), the MIC [5] was 0.5 µg/mL (≈ 0.809 µM) and the MIC (Staphylococcus aureus [6]) was 0.25 µg/mL (≈ 0.405 µM). For the same molecule, the MIC [7] was 0.5 µg/mL (≈ 0.809 µM), the MIC (Staphylococcus aureus [8]) was 0.125 µg/mL (≈ 0.202 µM) and the MIC (Staphylococcus aureus [9]) was 0.25 µg/mL (≈ 0.405 µM). For the same molecule, the MIC (Staphylococcus aureus [10]) was 0.25 µg/mL (≈ 0.405 µM), the MIC [11] was 0.25 µg/mL (≈ 0.405 µM) and the MIC [12] was 0.5 µg/mL (≈ 0.809 µM). The MIC [13] was 0.25 µg/mL (≈ 0.405 µM), the MIC [14] was 0.125 µg/mL (≈ 0.202 µM) and the MIC [15] was 0.5 µg/mL (≈ 0.809 µM). It also gave an MIC (Staphylococcus aureus [16]) of 0.5 µg/mL (≈ 0.809 µM).
For `C=C[C@]1(C)C[C@@H](OC(=O)CSCc2csc(NC(=O)CN(CCCC)CCCC)n2)[C@]2(C)[C@H](C)CC[C@]3(CCC(=O)[C@H]32)[C@@H](C)[C@@H]1O`, the MIC [1] was 8 µg/mL (≈ 11.8 µM), the MIC (Staphylococcus aureus [2]) was 8 µg/mL (≈ 11.8 µM) and the MIC (Staphylococcus aureus [3]) was 4 µg/mL (≈ 5.92 µM). It also gave an MIC (Staphylococcus aureus [4]) of 16 µg/mL (≈ 23.7 µM), an MIC [5] of 8 µg/mL (≈ 11.8 µM) and an MIC (Staphylococcus aureus [6]) of 8 µg/mL (≈ 11.8 µM). The MIC [7] was 4 µg/mL (≈ 5.92 µM), the MIC (Staphylococcus aureus [8]) was 4 µg/mL (≈ 5.92 µM) and the MIC (Staphylococcus aureus [9]) was 4 µg/mL (≈ 5.92 µM). The MIC (Staphylococcus aureus [10]) was 8 µg/mL (≈ 11.8 µM), the MIC [11] was 16 µg/mL (≈ 23.7 µM) and the MIC [12] was 16 µg/mL (≈ 23.7 µM). For the same molecule, the MIC [13] was 8 µg/mL (≈ 11.8 µM), the MIC [14] was 4 µg/mL (≈ 5.92 µM) and the MIC [15] was 16 µg/mL (≈ 23.7 µM). The MIC (Staphylococcus aureus [16]) was 32 µg/mL (≈ 47.3 µM).
In the case of `C=C[C@]1(C)C[C@@H](OC(=O)CSCc2csc(N)n2)[C@]2(C)[C@H](C)CC[C@]3(CCC(=O)[C@H]32)[C@@H](C)[C@@H]1O`, the MIC [1] is reported as 0.125 µg/mL (≈ 0.247 µM), the Ratio (Staphylococcus aureus [17]) is reported as 4 and the MIC (Staphylococcus aureus [2]) is reported as 0.5 µg/mL (≈ 0.987 µM). It also gave an MIC (Staphylococcus aureus [3]) of 2 µg/mL (≈ 3.95 µM), an MIC (Staphylococcus aureus [4]) of 0.125 µg/mL (≈ 0.247 µM) and an MIC [5] of 0.125 µg/mL (≈ 0.247 µM). The Ratio (Staphylococcus aureus [18]) was 4, the MIC (Staphylococcus aureus [6]) was 0.25 µg/mL (≈ 0.493 µM) and the Ratio (Staphylococcus aureus [19]) was 4. The Ratio (Staphylococcus aureus [20]) was 4, the Ratio (Staphylococcus aureus [21]) was 4 and the MIC [7] was 0.125 µg/mL (≈ 0.247 µM). The MIC (Staphylococcus aureus [8]) was 0.5 µg/mL (≈ 0.987 µM), the MIC (Staphylococcus aureus [9]) was 2 µg/mL (≈ 3.95 µM) and the Ratio (Staphylococcus aureus [22]) was 4. It also gave an MIC (Staphylococcus aureus [10]) of 0.5 µg/mL (≈ 0.987 µM), an MIC [11] of 0.125 µg/mL (≈ 0.247 µM) and an MIC [12] of 0.125 µg/mL (≈ 0.247 µM). For the same molecule, the MIC [13] was 0.125 µg/mL (≈ 0.247 µM), the Ratio (Staphylococcus aureus [23]) was 4 and the Ratio (Staphylococcus aureus [24]) was 4. The MIC [14] was 0.125 µg/mL (≈ 0.247 µM), the MIC [15] was 0.125 µg/mL (≈ 0.247 µM) and the MIC (Staphylococcus aureus [16]) was 0.0625 µg/mL (≈ 0.123 µM).
Molecule `C=C[C@]1(C)C[C@@H](OC(=O)CSCc2csc(NC(=O)CNCC(=O)OC)n2)[C@]2(C)[C@H](C)CC[C@]3(CCC(=O)[C@H]32)[C@@H](C)[C@@H]1O` has an MIC [1] of 4 µg/mL (≈ 6.29 µM), an MIC (Staphylococcus aureus [2]) of 0.5 µg/mL (≈ 0.786 µM) and an MIC (Staphylococcus aureus [3]) of 0.25 µg/mL (≈ 0.393 µM). It also gave an MIC (Staphylococcus aureus [4]) of 0.5 µg/mL (≈ 0.786 µM), an MIC [5] of 0.5 µg/mL (≈ 0.786 µM) and an MIC (Staphylococcus aureus [6]) of 1 µg/mL (≈ 1.57 µM). It also gave an MIC [7] of 0.5 µg/mL (≈ 0.786 µM), an MIC (Staphylococcus aureus [8]) of 0.25 µg/mL (≈ 0.393 µM) and an MIC (Staphylococcus aureus [9]) of 0.5 µg/mL (≈ 0.786 µM). The MIC (Staphylococcus aureus [10]) was 0.5 µg/mL (≈ 0.786 µM), the MIC [11] was 1 µg/mL (≈ 1.57 µM) and the MIC [12] was 1 µg/mL (≈ 1.57 µM). For the same molecule, the MIC [13] was 0.5 µg/mL (≈ 0.786 µM), the MIC [14] was 0.25 µg/mL (≈ 0.393 µM) and the MIC [15] was 0.5 µg/mL (≈ 0.786 µM). The MIC (Staphylococcus aureus [16]) was 1 µg/mL (≈ 1.57 µM).
For `C=C[C@]1(C)C[C@@H](OC(=O)CSCc2csc(NC(=O)CNC3CCCCC3)n2)[C@]2(C)[C@H](C)CC[C@]3(CCC(=O)[C@H]32)[C@@H](C)[C@@H]1O`, the MIC [1] was 1 µg/mL (≈ 1.55 µM), the MIC (Staphylococcus aureus [2]) was 0.25 µg/mL (≈ 0.387 µM) and the MIC (Staphylococcus aureus [3]) was 0.25 µg/mL (≈ 0.387 µM). It also gave an MIC (Staphylococcus aureus [4]) of 0.5 µg/mL (≈ 0.774 µM), an MIC [5] of 0.5 µg/mL (≈ 0.774 µM) and an MIC (Staphylococcus aureus [6]) of 0.5 µg/mL (≈ 0.774 µM). For the same molecule, the MIC [7] was 0.25 µg/mL (≈ 0.387 µM), the MIC (Staphylococcus aureus [8]) was 0.25 µg/mL (≈ 0.387 µM) and the MIC (Staphylococcus aureus [9]) was 0.5 µg/mL (≈ 0.774 µM). The MIC (Staphylococcus aureus [10]) was 0.5 µg/mL (≈ 0.774 µM), the MIC [11] was 1 µg/mL (≈ 1.55 µM) and the MIC [12] was 8 µg/mL (≈ 12.4 µM). It also gave an MIC [13] of 0.5 µg/mL (≈ 0.774 µM), an MIC [14] of 0.25 µg/mL (≈ 0.387 µM) and an MIC [15] of 1 µg/mL (≈ 1.55 µM). The MIC (Staphylococcus aureus [16]) was 0.5 µg/mL (≈ 0.774 µM).
`C=C[C@]1(C)C[C@@H](OC(=O)CS[C@@H]2C[C@H]3CC[C@@H](C2)N3C)[C@]2(C)[C@H](C)CC[C@]3(CCC(=O)[C@H]32)[C@@H](C)[C@@H]1O` [RETAPAMULIN] was tested, and the MIC (Streptococcus pyogenes) was 0.016 µg/mL (≈ 0.0309 µM) and the MIC (Staphylococcus aureus [25]) was 0.12 µg/mL (≈ 0.232 µM).
